{"source": "patent US20140227173A1", "about": "“CANCER TREATMENT WITH GAMMA-SECRETASE INHIBITORS” (The Johns Hopkins University, priority 2006, published 2014)", "key": {"GBM neurospheres": {"test_system": "GBM neurospheres", "assay": "Proliferation (Ki67 index) in the Nestin positive population of GBM neurospheres", "type": "cell-based", "source_text": "It has been shown that the Notch signaling pathway regulates normal stem cells in the Central Neural System (CNS), and that GBMs contain cancer stem cells (CSCs) with higher Notch activity (Cancer Research, 64:7011-21, 2004; Cancer Cell, 9:391-403, 2006). However, it has not been known if Notch pathway blockade could target CSCs in GBM. […] In the present study, we used GBM neurospheres to examine the effects of Notch pathway blockade in GBM. […] Furthermore, overexpression of an active form of Notch2 (NICD2) increases tumor growth in vitro."}, "[1]": {"test_system": "DAOY expressing activated Akt", "assay": "Apoptosis and growth in DAOY subclones expressing constitutively active Akt", "type": "cell-based", "protocol": "(A) Increase of cleaved Caspase 3 and loss of Akt phosphorylation is induced by 0.4 uMor higher levels of GSI-18, while overall levels of Akt and GAPDH are unchanged in DAOY medulloblastoma cells. (B) Cell death in 2 uM GSI-18 is reduced in a representative subclone of DAOY expressing activated Akt as compare to vector transfected cells. (C) Loss of Akt phosphorylation and activation of Caspase3 cleavage is induced by 2 μM or higher levels of GSI-18, while overall levels of Akt and GAPDH are unchanged in GBM neurosphere cells.\nIt has previously been shown that Akt is a critical effector of Notch-regulated survival and growth outside the brain (26, 27). Therefore, it was examined whether Akt was also a mediator of the pro-survival and pro-growth effects of Notch in brain tumors. GSI-18 blocks the phosphorylation of Akt required for its activation at concentrations as low as 0.4 μM (FIG. 7F). […] Thus the pro-survival effects of Notch signaling in MB appear to be mediated at least in part by Akt.\nThe DAOY, PFSK, D283 and D425 Med cell lines were obtained from the American Type Culture Collection. The low-passage MB line MB2 was derived from a tumor resected at Johns Hopkins Hospital. For treatment studies, cell were plated and allowed to grow overnight in MEM (Invitrogen, Carlsbad, Calif.) containing 10% FBS, then media was replaced the next morning with low serum (0.5% FBS) MEM containing GSI dissolved in DMSO. RNA and protein extractions, and all cell-based assays, were performed 48 hours after drug application unless otherwise noted. […] Cell mass was measured using CellTITER assays according to the manufacturer's instructions (Promega, Madison, Wis.). Cell number and viability were assessed using the Guava PCA and Viacount reagent according to instructions (Guava Technologies, Heyward, Calif.). Soft agar assays were performed as previously described (15) and scored either manually after 4 weeks or using as automated reader after 6 weeks. […] Soft agar assays were performed as previously described, with colonies counted using an automated reader (15)."}}}
{"smiles": "O=S(=O)(NC1C2CCC1Cc1ccccc1C2)c1cccs1", "note": "(stereo not drawn) [GSI-18, [11-endo]-N-(5,6,7,8,9,10-hexahydro-6,9-methanobenzo[α][8]annulen-11-yl)-thiophene-2-sulfonamide]", "values": [{"measurement": "proliferation (Ki67 index) in the Nestin positive population", "setting": "GBM neurospheres", "result": "decrease in proliferation (Ki67 index)"}, {"measurement": "cell death vs vector transfected cells", "setting": "[1]; 2 uM, representative subclone of DAOY expressing activated Akt", "result": "reduced"}, {"measurement": "apoptotic rate on exposure", "setting": "[1]; MB cells stably transfected with constitutively active Akt, 2 μM", "result": "not significantly increased"}, {"measurement": "inhibition of cell growth in Akt-transfected subclones", "setting": "[1]; two DAOY subclones with constitutively active Akt, data not shown", "result": "partially rescued"}]}
